In ChEMBL document CHEMBL1811855, “Xylarenones C-E from an endophytic fungus isolated from Alibertia macrophylla” (J Nat Prod, 2011):
pIC50: −log10 of the molar value.

How the values were obtained:
[1] = Inhibition of pepsin from porcine gastric mucosa using Arg-Glu-(EDANS)- Ser-Gln-Asn-Tyr-Pro-Ile-Val-Gln-Lys-(DALBCYL)-Arg fluorogenic substrate preincubated for 1 hr measured after 1 hr at 1 min interval by fluorescence assay; parameters: species or system Sus scrofa
[2] = target: T1, Proprotein convertase subtilisin/kexin type 7 (Homo sapiens) (UniProt Q16549); test: Inhibition of recombinant type 8 subtilisin using Arg-Glu-(EDANS)- Ser-Gln-Asn-Tyr-Pro-Ile-Val-Gln-Lys-(DALBCYL)-Arg fluorogenic substrate at 1 ug/ml preincubated for 1 hr measured after 1 hr at 1 min interval by fluorescence assay
T1 sequence (whole entry): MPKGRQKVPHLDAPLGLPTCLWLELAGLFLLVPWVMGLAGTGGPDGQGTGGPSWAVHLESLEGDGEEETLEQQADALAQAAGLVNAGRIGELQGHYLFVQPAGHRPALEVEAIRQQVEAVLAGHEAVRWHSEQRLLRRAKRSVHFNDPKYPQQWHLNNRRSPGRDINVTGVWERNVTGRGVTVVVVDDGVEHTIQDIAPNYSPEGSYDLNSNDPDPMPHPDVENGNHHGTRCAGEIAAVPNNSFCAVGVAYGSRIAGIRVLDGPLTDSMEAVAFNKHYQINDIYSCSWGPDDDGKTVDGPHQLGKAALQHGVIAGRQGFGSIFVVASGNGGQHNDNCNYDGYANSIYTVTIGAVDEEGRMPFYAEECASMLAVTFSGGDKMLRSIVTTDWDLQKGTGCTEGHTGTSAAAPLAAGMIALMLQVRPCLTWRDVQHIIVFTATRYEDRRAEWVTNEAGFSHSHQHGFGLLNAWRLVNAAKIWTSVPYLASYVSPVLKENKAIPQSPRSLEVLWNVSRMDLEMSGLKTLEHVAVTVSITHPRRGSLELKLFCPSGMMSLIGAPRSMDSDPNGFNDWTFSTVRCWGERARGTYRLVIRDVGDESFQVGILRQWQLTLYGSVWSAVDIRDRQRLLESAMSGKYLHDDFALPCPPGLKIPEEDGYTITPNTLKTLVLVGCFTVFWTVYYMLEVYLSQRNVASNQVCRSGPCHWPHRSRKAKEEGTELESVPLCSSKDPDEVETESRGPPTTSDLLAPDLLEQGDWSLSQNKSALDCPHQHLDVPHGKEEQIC

[3] = target: T1, Proprotein convertase subtilisin/kexin type 7 (Homo sapiens); test: Inhibition of recombinant type 8 subtilisin using Arg-Glu-(EDANS)- Ser-Gln-Asn-Tyr-Pro-Ile-Val-Gln-Lys-(DALBCYL)-Arg fluorogenic substrate at 0.1 ug/ml preincubated for 1 hr measured after 1 hr at 1 min interval by fluorescence assay
[4] = target: T1, Proprotein convertase subtilisin/kexin type 7 (Homo sapiens); test: Inhibition of recombinant type 8 subtilisin using Arg-Glu-(EDANS)- Ser-Gln-Asn-Tyr-Pro-Ile-Val-Gln-Lys-(DALBCYL)-Arg fluorogenic substrate at 0.01 ug/ml preincubated for 1 hr measured after 1 hr at 1 min interval by fluorescence assay
[5] = target: T1, Proprotein convertase subtilisin/kexin type 7 (Homo sapiens); test: Inhibition of recombinant type 8 subtilisin using Arg-Glu-(EDANS)- Ser-Gln-Asn-Tyr-Pro-Ile-Val-Gln-Lys-(DALBCYL)-Arg fluorogenic substrate at 0.001 ug/ml preincubated for 1 hr measured after 1 hr at 1 min interval by fluorescence assay

pIC50 [1]	inhibition [2]	inhibition [3]	inhibition [4]	inhibition [5]	Structure (SMILES)
3.90	< 10%	< 10%	< 10%	< 10%	C=C(CO)[C@@]12O[C@@H]1[C@@]1(C)C(=CC2=O)[C@H](OC(=O)C(O)(CO)CC(C)CC(C)C(C)O)CC[C@@H]1C (stereo partly drawn) [XYLARENONE E]
5.61	< 10%	< 10%	< 10%	< 10%	C=C(CO)[C@@]12O[C@@H]1[C@@]1(C)C(=CC2=O)[C@H](O)CC[C@@H]1C [XYLARENONE A]
6.54					C=C(CO)[C@@]12O[C@@H]1[C@@]1(C)C(=CC2=O)[C@H](OC(=O)C(C)CC(C)CC(C)CC)CC[C@@H]1C (stereo partly drawn) [XYLARENONE C]
5.34					O=c1oc2ccccc2c(O)c1Cc1c(O)c2ccccc2oc1=O [DICUMAROL]

Structure (SMILES)	pIC50 [1]	inhibition [2]	inhibition [3]	inhibition [4]	inhibition [5]
CC(=O)CC(c1ccccc1)c1c(O)c2ccccc2oc1=O (stereo not drawn) [WARFARIN]	8.08				
C=C(CO)[C@@]12O[C@@H]1[C@@]1(C)C(=CC2=O)[C@H](OC(=O)C(O)(CO)CC(C)CC(C)CC)CC[C@@H]1C (stereo partly drawn) [XYLARENONE D]	3.94	< 10%	< 10%	< 10%	< 10%
